How the values were obtained:
[1] = tested on: Desulfovibrio desulfuricans G100A; assay: microbe, parasite or virus in culture; type: cell-based; conditions: Desulfovibrio desulfuricans, G100A, read-out: % Inhib. (inhibition of sulfide production)
[2] = tested on: D. desulfuricans #ATCC 27774; assay: Growth of different sulfate-reducers with 1,8-dihydroxyanthraquinone (Example 9); type: cell-based; conditions: 3 ppm, 40 hours; control .45
Description: (§1) Growth was monitored as optical density at 660 nm for 40 hours.

[3] = tested on: D. vulgaris; assay: Growth of different sulfate-reducers with 1,8-dihydroxyanthraquinone (Example 10); type: cell-based; conditions: 3 ppm, 40 hours; control .20
Description: as §1

[4] = tested on: D. desulfuricans strain G100A; assay: Growth by pyruvate fermentation in the absence of sulfate; type: cell-based
Description: D. desulfuricans strain G100A was grown using pyruvate fermentation in the absence of sulfate.

[5] = tested on: sulfate reducing bacteria (crude enrichments from various naturally-occuring environments); assay: Sulfide production by crude enrichments from naturally-occurring environments; type: cell-based; conditions: 5 ppm
Description: All samples were grown on standard BTZ-3 medium (as defined in Example 1) under hydrogen (80%) carbon dioxide (20%) with 10 mM acetate and 0.1% yeast extract. Mud samples were inoculated into this medium and allowed to grow for 24 h to enrich for sulfate reducing bacteria. A 1 ml aliquot of this enrichment was transferred to fresh medium and the sulfide evolved was measured over a three day period. Sulfide was assayed as described by Siegal, Anal. Biochem. 11: 126-132, 1965, herein incorporated by reference.

[6] = tested on: Desulfovibrio gigas; assay: Sulfide production by resting cells of D. gigas; type: cell-based
Description: Experiments in this example were carried out using resting cells of Desulfovibrio gigas rather than growing cells as was the case for the autoanalyzer system employing the Desulfovibrio desulfuricans G100A strain. […] Thus the experiment examined a different organism, different test system, and a different physiological state for the phenomenon of anthraquinone inhibition of sulfide production by Desulfovibrio sp. Active compounds, as determined by the autoanalyzer, were evaluated in comparison with four additional compounds not evaluated in the autoanalyzer.
500 ml cultures of Desulfovibrio gigas were grown on standard BTZ-3 medium as previously described in Example 1 with 30 mM sodium lactate, 30 mM sodium sulfate and 30 mM sodium fumarate. The culture was harvested after 24 h of growth at 31° C. by centrifugation at 8000 rpm in a GSA Sorvall rotor for 20 minutes. The cell pellet was resuspended in 30 ml of incubation assay mixture of the following composition: 50 mM HEPES buffer pH 7 buffer, 2.5 mM sodium lactate, 2.5 mM sodium sulfate. This suspension was centrifuged again at 10,000 rpm in a Sorvall SS-34 rotor for 5 minutes. The resulting cell pellet was resuspended in 5 ml of incubation assay buffer. Cell densities were generally near 10e10 cells/mi.
The samples were assayed for production in the presence of anthraquinones. 200 ul of the cell suspension was added to 1.2 ml of incubation assay mixture in a 5 ml capacity test tube. The tube was gassed with hydrogen gas for 20 minutes then the anthraquinones were added as ethanolic solutions, the tubes were then gassed with hydrogen again for 5 minutes. The reaction mixtures were then incubated for 3 hours at 31° C. The reactions were stopped by the addition of 200 ul of 1N sodium hydroxide. After 20 minutes the alkaline mixtures were centrifuged in a table top microfuge for 4 minutes at 14,000 rpm to remove cells and cell debris. The supernatant was then assayed for sulfide using the ferric chloride-DPD reagent system as described by Siegel et al., Anal. Blochem., 11:126-132, 1965, herein incorporated by reference.

[7] = tested on: B. aureus, B. subtilis, B. stearothermophilus and S. aureus; conditions: background art; cited from earlier work
[8] = tested on: D. desulfuricans #ATCC27774; assay: Respiration rate (hydrogen gas uptake) with sulfate as electron acceptor; conditions: Desulfovibrio desulfuricans, ATCC27774, 4 h, pH 7, read-out: Gas Uptake (as percent of control)

For `O=C1c2cccc(O)c2C(=O)c2c(O)cccc21` [1,8-Dihydroxyanthraquinone], the inhibition at 10 ppm [1] was 82.2%, the “Optical Density @ 660 nm, treated” value [2] was “.08” and the “Optical Density @ 660 nm, treated” value [3] was “.05”. For the same molecule, the “Optical Density @ 660 nm” value ([4]; 0 h, before addition of 3 ppm at 6.5 h, control .11) was “.1”, the “effect on fermentative growth (in words)” value ([4]; 3 ppm) was “did not affect fermentative growth” and the “Optical Density @ 660 nm” value ([4]; 2 h, before addition of 3 ppm at 6.5 h, control .12) was “.12”. The “Optical Density @ 660 nm” value ([4]; 3.5 h, before addition of 3 ppm at 6.5 h, control .14) was “.14”, the “Optical Density @ 660 nm” value ([4]; 6.5 h, time of addition of 3 ppm, control .15) was “.16” and the “Optical Density @ 660 nm” value ([4]; 8.5 h, 3 ppm added at 6.5 h, control .18) was “.16”. The “Optical Density @ 660 nm” value ([4]; 10.7 h, 3 ppm added at 6.5 h, control .19) was “.17”, the “Optical Density @ 660 nm” value ([4]; 25 h, 3 ppm added at 6.5 h, control .26) was “.22” and the “Optical Density @ 660 nm” value ([4]; 32 h, 3 ppm added at 6.5 h, control .37) was “.34”. For the same molecule, the “Optical Density @ 660 nm” value ([4]; 45 h, 3 ppm added at 6.5 h, control .46) was “.45”, the “inhibition of enrichments (in words)” value [5] was “the majority of enrichments from natural sources were inhibited” and the “sulfide production, treated” value ([5]; SM-Lewes (Lewes saltmarsh), control 6.4) was 4.5 umol sulfide/day. For the same molecule, the “sulfide production, treated” value ([5]; VF-A2 (Valley Garden Park, aerobic), control 64.0) was -11.0 umol sulfide/day, the “sulfide production, treated” value ([5]; VF-A (Valley Garden Park, aerobic), control 24.0) was -2.0 umol sulfide/day and the “sulfide production, treated” value ([5]; VF-AN (Valley Garden Park, anaerobic), control 67.0) was 2.8 umol sulfide/day. For the same molecule, the “sulfide production, treated” value ([5]; VS-A (Valley Stream State Park, aerobic), control 49.0) was -1.0 umol sulfide/day, the “sulfide production, treated” value ([5]; VS-AN2 (Valley Stream State Park, anaerobic), control 116.0) was 0.0 umol sulfide/day and the “sulfide production, treated” value ([5]; VS-AN (Valley Stream State Park, anaerobic), control 12.0) was -4.0 umol sulfide/day. For the same molecule, the “sulfide production, treated” value ([5]; WADS (Wilmington anaerobic digestor), control 106.7) was 71.0 umol sulfide/day, the “sulfide production, treated” value ([5]; WCC-A1 (White Clay Creek Preserve, aerobic), control 411.0) was 67.0 umol sulfide/day and the “sulfide production, treated” value ([5]; WCC-A2 (White Clay Creek Preserve, aerobic), control 388.0) was 49.0 umol sulfide/day. For the same molecule, the “sulfide production, treated” value ([5]; WCC-AN1 (White Clay Creek Preserve, anaerobic), control 345.0) was 80.0 umol sulfide/day, the “sulfide production, treated” value ([5]; WCC-AN2 (White Clay Creek Preserve, anaerobic), control 288.0) was 37.0 umol sulfide/day and the activity at 0.1 ppm ([6]; Desulfovibrio, 0.1 ppm, 3 hours at 31° C.) was 101%. For the same molecule, the activity at 0.5 ppm ([6]; Desulfovibrio, 0.5 ppm, 3 hours at 31° C.) was 51%, the activity at 2 ppm ([6]; Desulfovibrio, 2 ppm, 3 hours at 31° C.) was 4% and the activity at 5 ppm ([6]; Desulfovibrio, 5 ppm, 3 hours at 31° C.) was 2.3%. For the same molecule, the “inhibition of sulfide production (in words)” value ([6]; resting cells) was “inhibitory properties”, the “antibacterial activity (in words)” value [7] was “inactive” and the activity at 0.6 ppm [8] was 66%. For the same molecule, the activity at 1.5 ppm [8] was 45% and the activity at 3 ppm [8] was 30%.
